Assay results from ChEMBL document CHEMBL1143545, “A proof of the specificity of kanamycin-ribosomal RNA interaction with designed synthetic analogs and the antibacterial activity” (2005).
In brackets after ≈: the same amount, converted by molar mass.

Legend:
Type in all cases: functional
Escherichia coli [1] = assay: Minimal inhibitory concentration against Escherichia coli JR66/W677 was determined by 2-fold agar dilution streak method at 37: C for 18 h
Bacillus cereus = assay: Minimal inhibitory concentration against Bacillus cereus ATCC 10702 was determined by 2-fold agar dilution streak method at 37: C for 18 h; settings: ATCC 10702, 18 h
Pseudomonas aeruginosa [2] = assay: Minimal inhibitory concentration against Pseudomonas aeruginosa 21-75 was determined by 2-fold agar dilution streak method at 37: C for 18 h
Bacillus subtilis = assay: Minimal inhibitory concentration against Bacillus subtilis PCI219 was determined by 2-fold agar dilution streak method at 37: C for 18 h
Escherichia coli [3] = assay: Minimal inhibitory concentration against Escherichia coli K-12 ML1410 was determined by 2-fold agar dilution streak method at 37: C for 18 h
[4] = system: Mycolicibacterium smegmatis; assay: Minimal inhibitory concentration against Mycobacterium smegmatis ATCC607 was determined by 2-fold agar dilution streak method at 37C for 42h
Serratia marcescens = assay: Minimal inhibitory concentration against Serratia marcescens was determined by 2-fold agar dilution streak method at 37: C for 18 h
Klebsiella pneumoniae = assay: Minimal inhibitory concentration against Klebsiella pneumoniae PCI 602 was determined by 2-fold agar dilution streak method at 37: C for 18 h
Escherichia coli [5] = assay: Minimal inhibitory concentration against Escherichia coli K-12 was determined by 2-fold agar dilution streak method at 37: C for 18 h; settings: K-12, 18 h
Micrococcus luteus = assay: Minimal inhibitory concentration against Micrococcus luteus FDA16 was determined by 2-fold agar dilution streak method at 37: C for 18 h
Staphylococcus aureus = assay: Minimal inhibitory concentration against Staphylococcus aureus FDA209P was determined by 2-fold agar dilution streak method at 37: C for 18 h
Pseudomonas aeruginosa [6] = assay: Minimal inhibitory concentration against Pseudomonas aeruginosa GN315 was determined by 2-fold agar dilution streak method at 37: C for 18 h
Pseudomonas aeruginosa [7] = assay: Minimal inhibitory concentration against Pseudomonas aeruginosa A3 was determined by 2-fold agar dilution streak method at 37: C for 18 h

Row | Compound | MIC (Escherichia coli [1]) | MIC (Bacillus cereus) | MIC (Pseudomonas aeruginosa [2]) | MIC (Bacillus subtilis) | MIC (Escherichia coli [3]) | MIC [4] | MIC (Serratia marcescens) | MIC (Klebsiella pneumoniae) | MIC (Escherichia coli [5]) | MIC (Micrococcus luteus) | MIC (Staphylococcus aureus) | MIC (Pseudomonas aeruginosa [6]) | MIC (Pseudomonas aeruginosa [7])
1 | NCC1CCC(N)C(OC2C(N)CC(N=C(N)N)C(OC3OC(CO)C(O)C(N)C3O)C2O)O1 (stereo not given) | > 100 µg/mL | 25 µg/mL (≈ 50.7 µM) | > 100 µg/mL | 0.78 µg/mL (≈ 1.58 µM) | > 100 µg/mL | 3.13 µg/mL (≈ 6.34 µM) | > 100 µg/mL | > 100 µg/mL | 50 µg/mL (≈ 101 µM) | > 100 µg/mL | 0.78 µg/mL (≈ 1.58 µM) | > 100 µg/mL | 25 µg/mL (≈ 50.7 µM)
2 | NCCCC(=O)NC1CC(N)C(OC2OC(CN)CCC2N)C(O)C1OC1OC(CO)C(O)C(N)C1O (stereo not given) | 25 µg/mL (≈ 46.6 µM) | 6.25 µg/mL (≈ 11.6 µM) | > 100 µg/mL | 0.78 µg/mL (≈ 1.45 µM) | 25 µg/mL (≈ 46.6 µM) | 6.25 µg/mL (≈ 11.6 µM) | > 100 µg/mL | 12.5 µg/mL (≈ 23.3 µM) | 12.5 µg/mL (≈ 23.3 µM) | 100 µg/mL (≈ 186 µM) | 1.56 µg/mL (≈ 2.91 µM) | > 100 µg/mL | 3.13 µg/mL (≈ 5.83 µM)

Next, values leading:

Row | MIC (Escherichia coli [1]) | MIC (Bacillus cereus) | MIC (Pseudomonas aeruginosa [2]) | MIC (Bacillus subtilis) | MIC (Escherichia coli [3]) | MIC [4] | MIC (Serratia marcescens) | MIC (Klebsiella pneumoniae) | MIC (Escherichia coli [5]) | MIC (Micrococcus luteus) | MIC (Staphylococcus aureus) | MIC (Pseudomonas aeruginosa [6]) | MIC (Pseudomonas aeruginosa [7]) | Compound
3 | 3.13 µg/mL (≈ 5.26 µM) | 0.78 µg/mL (≈ 1.31 µM) | 12.5 µg/mL (≈ 21 µM) | 0.1 µg/mL (≈ 0.168 µM) | 1.56 µg/mL (≈ 2.62 µM) | 0.39 µg/mL (≈ 0.656 µM) | 25 µg/mL (≈ 42 µM) | 1.56 µg/mL (≈ 2.62 µM) | 0.78 µg/mL (≈ 1.31 µM) | 12.5 µg/mL (≈ 21 µM) | 0.2 µg/mL (≈ 0.336 µM) | > 100 µg/mL | 0.39 µg/mL (≈ 0.656 µM) | NCC1CCC(N)C(OC2C(N)CC(NC(=O)[C@H](O)CCN=C(N)N)C(OC3OC(CO)C(O)C(N)C3O)C2O)O1 (stereo not given in full)
4 | 50 µg/mL (≈ 86.4 µM) | 6.25 µg/mL (≈ 10.8 µM) | > 100 µg/mL | 1.56 µg/mL (≈ 2.7 µM) | 25 µg/mL (≈ 43.2 µM) | 6.25 µg/mL (≈ 10.8 µM) | > 100 µg/mL | 12.5 µg/mL (≈ 21.6 µM) | 12.5 µg/mL (≈ 21.6 µM) | 100 µg/mL (≈ 173 µM) | 1.56 µg/mL (≈ 2.7 µM) | > 100 µg/mL | 6.25 µg/mL (≈ 10.8 µM) | NCC1CCC(N)C(OC2C(N)CC(NC(=O)CCCN=C(N)N)C(OC3OC(CO)C(O)C(N)C3O)C2O)O1 (stereo not given)
5 | > 100 µg/mL | 25 µg/mL (≈ 41.1 µM) | > 100 µg/mL | 3.13 µg/mL (≈ 5.15 µM) | > 100 µg/mL | 25 µg/mL (≈ 41.1 µM) | > 100 µg/mL | 100 µg/mL (≈ 165 µM) | 100 µg/mL (≈ 165 µM) | > 100 µg/mL | 6.25 µg/mL (≈ 10.3 µM) | > 100 µg/mL | 100 µg/mL (≈ 165 µM) | NCC1CCC(N)C(OC2C(N)CC(NC(=O)[C@H](N)CCCN=C(N)N)C(OC3OC(CO)C(O)C(N)C3O)C2O)O1 (stereo not given in full)
